{"source": "ChEMBL document CHEMBL5046227", "about": "“Design, synthesis and bioactivity evaluation of novel evodiamine derivatives with excellent potency against gastric cancer” (Eur J Med Chem, 2022)", "key": {"[1]": {"system": "SGC-7901", "experiment": "Induction of apoptosis in human SGC-7901 cells assessed as formation of apoptotic bodies measured after 24 hrs by Hoechst 33342 staining based fluorescence microscopic analysis", "assay_type": "functional, cell-based"}, "[2]": {"system": "MGC-803", "experiment": "Antitumor activity against human MGC-803 cells xenografted in BALB/c nude mouse assessed as tumor inhibition rate at 50 mg/kg, ip for 16 days", "assay_type": "functional", "details": "MGC-803, ip, 384 h, time 16 day, read-out: TGI"}, "[3]": {"system": "Spleen", "experiment": "Acute toxicity in Kunming mouse assessed as effect on spleen at 1000 mg/kg, ip measured for 14 days by H and E staining based histological analysis", "assay_type": "organism-based", "details": "in vivo, 336 h, time 14 day"}, "[4]": {"system": "Liver", "experiment": "Acute toxicity in Kunming mouse assessed as effect on liver at 1000 mg/kg, ip measured for 14 days by H and E staining based histological analysis", "assay_type": "organism-based", "details": "in vivo, 336 h, time 14 day"}, "[5]": {"system": "MGC-803", "experiment": "Antiproliferative activity against human MGC-803 cells assessed as reduction in EdU positive cells at 0.03 to 0.3 uM measured after 24 hrs by EdU incorporation assay", "assay_type": "functional, cell-based", "details": "dose 0.03-0.3 µM"}, "[6]": {"experiment": "Acute toxicity in BALB/c nude mouse xenografted with human MGC-803 cells assessed as effect on WBC level at 50 mg/kg, ip for 16 days (reference value: 78.58 +/- 2.02 x10^9/L)", "assay_type": "organism-based", "details": "in vivo, 384 h, time 16 day"}, "[7]": {"system": "HGC-27", "experiment": "Antiproliferative activity against human HGC-27 cells assessed as reduction in cell viability measured after 72 hrs by MTT assay", "assay_type": "functional, cell-based", "details": "HGC-27, 72 h"}, "[8]": {"system": "MGC-803", "experiment": "Induction of apoptosis in human MGC-803 cells assessed as necrotic cells at 0.9 uM after 24 hrs by Annexin V-FITC/PI staining based flow cytometry method (reference value: 0.05%)", "assay_type": "functional"}, "[9]": {"system": "SGC-7901", "experiment": "Induction of apoptosis in human SGC-7901 cells assessed as necrotic cells at 0.1 uM after 24 hrs by Annexin V-FITC/PI staining based flow cytometry method (reference value: 0.01%)", "assay_type": "functional"}, "[10]": {"biological_target": "T1, DNA topoisomerase 1 (Homo sapiens) (UniProt P11387)", "T1 sequence (whole entry)": "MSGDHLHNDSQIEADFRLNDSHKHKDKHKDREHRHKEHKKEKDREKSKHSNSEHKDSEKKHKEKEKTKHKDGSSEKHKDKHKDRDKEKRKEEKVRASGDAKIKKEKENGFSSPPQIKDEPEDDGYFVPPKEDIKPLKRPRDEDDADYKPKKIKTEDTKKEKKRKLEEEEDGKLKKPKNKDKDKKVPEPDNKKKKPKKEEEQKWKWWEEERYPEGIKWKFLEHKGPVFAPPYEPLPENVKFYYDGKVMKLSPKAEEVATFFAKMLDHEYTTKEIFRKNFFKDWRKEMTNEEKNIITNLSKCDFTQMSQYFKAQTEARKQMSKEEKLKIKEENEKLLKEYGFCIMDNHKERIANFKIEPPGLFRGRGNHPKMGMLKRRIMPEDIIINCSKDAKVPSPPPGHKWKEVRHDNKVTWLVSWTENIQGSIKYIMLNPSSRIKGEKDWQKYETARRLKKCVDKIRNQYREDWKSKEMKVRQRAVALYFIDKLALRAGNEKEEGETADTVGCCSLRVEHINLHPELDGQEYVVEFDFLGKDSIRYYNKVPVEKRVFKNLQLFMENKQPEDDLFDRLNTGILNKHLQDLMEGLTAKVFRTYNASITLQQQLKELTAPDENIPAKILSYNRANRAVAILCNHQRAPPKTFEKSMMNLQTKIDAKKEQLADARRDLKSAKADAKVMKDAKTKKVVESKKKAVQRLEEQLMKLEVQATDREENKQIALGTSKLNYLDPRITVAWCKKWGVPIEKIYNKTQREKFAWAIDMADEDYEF", "experiment": "Inhibition of topoisomerase 1 (unknown origin) assessed as relaxation of supercoiled plasmid pBR322 DNA at 100 uM incubated for 15 mins by ethidium bromide staining based agarose gel electrophoresis method"}, "[11]": {"system": "SGC-7901", "experiment": "Induction of apoptosis in human SGC-7901 cells assessed as necrotic cells at 0.9 uM after 24 hrs by Annexin V-FITC/PI staining based flow cytometry method (reference value: 0.01%)", "assay_type": "functional"}, "[12]": {"system": "MGC-803", "experiment": "Induction of apoptosis in human MGC-803 cells assessed as chromatin condensation incubated for 24 hrs by Giemsa staining method", "assay_type": "functional, cell-based"}, "[13]": {"biological_target": "T1, DNA topoisomerase 1 (Homo sapiens)", "experiment": "Inhibition of topoisomerase 1 (unknown origin) assessed as relaxation of supercoiled plasmid pBR322 DNA at 200 uM incubated for 15 mins by ethidium bromide staining based agarose gel electrophoresis method"}, "[14]": {"experiment": "Acute toxicity in BALB/c nude mouse xenografted with human MGC-803 cells assessed as effect on platelet level at 50 mg/kg, ip for 16 days (reference value: 1512.67 +/- 252.74 x10^9/L)", "assay_type": "organism-based", "details": "in vivo, 384 h, time 16 day"}, "[15]": {"system": "SGC-7901", "experiment": "Induction of apoptosis in human SGC-7901 cells assessed as late apoptic cells at 0.1 uM after 24 hrs by Annexin V-FITC/PI staining based flow cytometry method (reference value: 0.03%)", "assay_type": "functional"}, "[16]": {"system": "MGC-803", "experiment": "Induction of apoptosis in human MGC-803 cells assessed as necrotic cells at 0.3 uM after 24 hrs by Annexin V-FITC/PI staining based flow cytometry method (reference value: 0.05%)", "assay_type": "functional"}, "[17]": {"system": "SGC-7901", "experiment": "Induction of apoptosis in human SGC-7901 cells assessed as viable cells at 0.9 uM after 24 hrs by Annexin V-FITC/PI staining based flow cytometry method (reference value: 99.95%)", "assay_type": "functional", "details": "read-out: Activity"}, "[18]": {"system": "MGC-803", "experiment": "Induction of apoptosis in human MGC-803 cells assessed as late apoptic cells at 0.3 uM after 24 hrs by Annexin V-FITC/PI staining based flow cytometry method (reference value: 0.05%)", "assay_type": "functional"}, "[19]": {"system": "SGC-7901", "experiment": "Induction of apoptosis in human SGC-7901 cells assessed as early apoptic cells at 0.3 uM after 24 hrs by Annexin V-FITC/PI staining based flow cytometry method (reference value: 0.01%)", "assay_type": "functional"}, "[20]": {"system": "Heart", "experiment": "Acute toxicity in Kunming mouse assessed as effect on heart at 1000 mg/kg, ip measured for 14 days by H and E staining based histological analysis", "assay_type": "organism-based", "details": "in vivo, 336 h, time 14 day"}, "[21]": {"system": "SGC-7901", "experiment": "Antiinvasive activity against human SGC-7901 cells assessed as reduction in cell invasion at 0.03 to 0.3 uM incubated for 24 hrs by matrigel-coated transwell assay", "assay_type": "functional, cell-based", "details": "dose 0.03-0.3 µM"}, "[22]": {"system": "MGC-803", "experiment": "Induction of apoptosis in human MGC-803 cells assessed as early apoptic cells at 0.3 uM after 24 hrs by Annexin V-FITC/PI staining based flow cytometry method (reference value: 0%)", "assay_type": "functional"}, "[23]": {"system": "MGC-803", "experiment": "Induction of apoptosis in human MGC-803 cells assessed as necrotic cells at 0.1 uM after 24 hrs by Annexin V-FITC/PI staining based flow cytometry method (reference value: 0.05%)", "assay_type": "functional"}, "[24]": {"system": "SGC-7901", "experiment": "Induction of cell cycle arrest in human SGC-7901 cells assessed as accumulation at G2/M phase at 0.1 to 0.9 uM after 24 hrs by propidium iodide staining based flow cytometry", "assay_type": "functional", "details": "dose 0.1-0.9 µM"}, "[25]": {"system": "SGC-7901", "experiment": "Antiproliferative activity against human SGC-7901 cells assessed as reduction in cell viability measured after 72 hrs by MTT assay", "assay_type": "functional, cell-based", "details": "SGC-7901, 72 h"}, "[26]": {"system": "MGC-803", "experiment": "Antiproliferative activity against human MGC-803 cells assessed as reduction in cell viability measured after 72 hrs by MTT assay", "assay_type": "functional, cell-based", "details": "MGC-803, 72 h"}}, "note": "Activity calls are given as the source filed them. No cut-off for these calls is given here.", "data": [{"smiles": "Cc1ccc2c(c1)C(=O)N1CCc3c([nH]c4ccc(C)cc34)C1N2c1cccc(F)c1", "note": "(stereo unspecified)", "values": [{"measurement": "Activity", "setting": "[1]", "value": "Active"}, {"measurement": "inhibition in vivo at 50 mg/kg", "setting": "[2]", "value": 70.1, "unit": "%"}, {"measurement": "Activity", "setting": "[3]", "value": "Non-Toxic"}, {"measurement": "Activity", "setting": "[4]", "value": "Non-Toxic"}, {"measurement": "Activity", "setting": "[5]", "value": "Dose-Dependent Effect"}, {"measurement": "Activity", "setting": "[6]", "value": "80.28 10^9/L"}, {"measurement": "IC50", "setting": "[7]", "value": 490, "unit": "nM"}, {"measurement": "Activity", "setting": "[8]", "value": 0, "unit": "%"}, {"measurement": "Activity", "setting": "[9]", "value": 0.07, "unit": "%"}, {"measurement": "inhibition", "setting": "[10]", "value": 63.6, "unit": "%"}, {"measurement": "Activity", "setting": "[11]", "value": 0.37, "unit": "%"}, {"measurement": "Activity", "setting": "[12]", "value": "Active"}, {"measurement": "inhibition", "setting": "[13]", "value": 51.9, "unit": "%"}, {"measurement": "Activity", "setting": "[14]", "value": "1579 10^9/L"}, {"measurement": "Activity", "setting": "[15]", "value": 4.43, "unit": "%"}, {"measurement": "Activity", "setting": "[16]", "value": 0, "unit": "%"}, {"measurement": "viability at 0.9 µM", "setting": "[17]", "value": 76.8, "unit": "%"}, {"measurement": "Activity", "setting": "[18]", "value": 46.8, "unit": "%"}, {"measurement": "Activity", "setting": "[19]", "value": 3.99, "unit": "%"}, {"measurement": "Activity", "setting": "[20]", "value": "Non-Toxic"}, {"measurement": "Activity", "setting": "[21]", "value": "Active"}, {"measurement": "Activity", "setting": "[22]", "value": 15.3, "unit": "%"}, {"measurement": "Activity", "setting": "[23]", "value": 0, "unit": "%"}, {"measurement": "Activity", "setting": "[24]", "value": 22.85, "unit": "%"}, {"measurement": "IC50", "setting": "[25]", "value": 240, "unit": "nM"}, {"measurement": "IC50", "setting": "[26]", "value": 440, "unit": "nM"}]}]}
